Values quoted from earlier work, collected in patent US8759329B2 (Unimed Pharmaceuticals, LLC, priority 2005, dated 2014).

Key:
[1] = tested on: protein (SHBG, albumin); details: circulating testosterone
[2] = molecular target: protein (SHBG, albumin) (Homo sapiens, UniProt P02768); details: in men
[3] = molecular target: T1, protein (SHBG, albumin) (Homo sapiens, UniProt P04278); details: in men
T1 sequence (P04278 30-402): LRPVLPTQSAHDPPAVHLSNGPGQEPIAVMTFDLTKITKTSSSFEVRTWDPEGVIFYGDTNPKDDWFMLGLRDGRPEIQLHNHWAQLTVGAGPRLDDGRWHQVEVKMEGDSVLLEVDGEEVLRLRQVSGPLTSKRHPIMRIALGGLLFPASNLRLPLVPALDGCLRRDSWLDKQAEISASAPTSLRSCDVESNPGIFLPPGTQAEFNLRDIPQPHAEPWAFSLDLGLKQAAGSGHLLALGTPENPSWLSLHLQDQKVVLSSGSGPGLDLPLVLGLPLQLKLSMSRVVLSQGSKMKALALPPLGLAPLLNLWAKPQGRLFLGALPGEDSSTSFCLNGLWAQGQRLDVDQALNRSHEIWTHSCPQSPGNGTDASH

Chain of protein (SHBG, albumin) (Homo sapiens, UniProt P02768) (P02768 25-609): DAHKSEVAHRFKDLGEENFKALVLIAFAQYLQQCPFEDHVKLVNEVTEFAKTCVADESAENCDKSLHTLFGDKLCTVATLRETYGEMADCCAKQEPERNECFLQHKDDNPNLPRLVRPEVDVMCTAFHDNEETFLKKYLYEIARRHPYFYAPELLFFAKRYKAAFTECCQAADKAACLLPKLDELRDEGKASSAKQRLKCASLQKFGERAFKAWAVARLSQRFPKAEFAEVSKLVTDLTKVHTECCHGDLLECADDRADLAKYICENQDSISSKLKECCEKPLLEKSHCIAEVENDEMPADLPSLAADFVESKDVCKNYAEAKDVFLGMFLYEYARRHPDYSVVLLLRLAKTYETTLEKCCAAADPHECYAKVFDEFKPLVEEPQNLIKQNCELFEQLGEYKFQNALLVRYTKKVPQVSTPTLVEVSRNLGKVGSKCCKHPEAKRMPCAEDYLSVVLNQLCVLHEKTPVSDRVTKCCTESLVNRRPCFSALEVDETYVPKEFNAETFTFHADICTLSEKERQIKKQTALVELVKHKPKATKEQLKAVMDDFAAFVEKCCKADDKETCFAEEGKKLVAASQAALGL

For `C[C@]12CC[C@H]3[C@@H](CCC4=CC(=O)CC[C@@]43C)[C@@H]1CC[C@@H]2O` [testosterone], the “bound to protein in the blood” value [1] is listed as 98%, the “share bound weakly to albumin” value [2] is listed as 60% and the “share of the binding to SHBG” value [3] is listed as “approximately 40%”.
